From patent publication US7449537B2, “Antineoplastic polyalkoxyalkylsiloxanes and methods of use thereof” (NDSU Research Foundation, priority 2001, dated 2008) come the findings set out here.

What all share (type): cell-based, human
The subject of assay [1] is SF-268 (CNS glioma) cell line. Description: DTP 3-cell line single-dose antineoplastic pre-screen (sulforhodamine B). The settings on record: 1.00 E-04 Molar, 48 hours, growth relative to untreated control cells; negative = cell kill. From the text:
(§1) For the past 10 years, the Developmental Therapeutics Program (DTP) of the National Cancer Institute (NCI) has used an in vitro model consisting of 60 human tumor cell lines as the primary anticancer screen (see, J. Natl. Cancer Inst., 83:757-766, (1991)). […] In view of this, the DTP now uses a 3-cell line panel consisting of the MCF7(breast carcinoma) cell line, the NCI-H460 (lung carcinoma) cell line, and the SF-268 (CNS glioma) cell line as its primary anticancer (antineoplastic) assay. This 3-cell line, single-dose assay has been in use by DTP for several years for the evaluation of combinatorial libraries and has proven to be an effective pre-screen for compounds with antineoplastic activity.
(§2) In the DTP protocol, each cell line is inoculated and preincubated on a microtiter plate. Test agents are then added at a single concentration and the culture incubated for 48 hours. End-point determination are made with sulforhodamine B, a protein-binding dye. Results for each test agent are reported as the percent of growth of the treated cells normalized against the growth of the corresponding untreated control cells, i.e., a reported value of +100% refers to cell growth equivalent to that of the corresponding untreated control cells. […] Compounds which reduce the growth of any one of the cell lines to a value of +32% or less (negative numbers indicate cell kill) are generally considered to be sufficiently “active” to be selected for further evaluation by NCI in a full panel of 60 tumor cell lines over a 5-log dose range.
(§3) Two poly((aminofunctional alkoxy)-alkylsiloxane) compounds were tested for antineoplastic activity in the DTP screen. The two compounds (linear poly((aminofunctional alkoxy)-alkylsiloxanes) 5 and 3) were prepared according to the procedures described in Examples 2 and 5 above, respectively. […] This compound includes 1,3-N,N-dimethylamino-2-propoxy groups.

Assay [2] deals with MCF7 (breast carcinoma) cell line. Described as above. To be noted: 1.00 E-04 Molar, 48 hours, growth relative to untreated control cells; negative = cell kill.
Excerpt: as §1, §2, §3

Assay [3] concerns NCI-H460 (lung carcinoma) cell line. Described as above. The settings on record: 1.00 E-04 Molar, 48 hours, growth relative to untreated control cells; negative = cell kill.
Excerpt: as §1, §2, §3

Assay [4] deals with 3-cell line panel MCF7, NCI-H460, SF-268. Description: DTP screen, overall activity call over the 3-cell line panel. Set-up: key to Activity: Active: Compounds which reduce the growth of any one of the cell lines to a value of +32% or less (negative numbers indicate cell kill) are generally considered to be sufficiently “active”. To be noted: for Activity: 1.00 E-04 Molar; for antineoplastic activity in the DTP screen: three test cell lines.
Excerpt: as §1, §2, §3

Regarding `CN(C)CC(CN(C)C)O[Si](C)(O[Si](C)(C)C)O[Si](C)(OC(CN(C)C)CN(C)C)O[Si](C)(C)C` (stereo not shown) [Compound 5, bis-(trimethylsiloxy)-1,3-dimethyl, 1,3-(1,3-(N,N-dimethylamino)-2-propoxy)siloxane], in assay [1], the “Growth Percentages (CNS) SF-268” value was −24%. The “Growth Percentages (Breast) MCF7” value in assay [2] is −5%. In assay [3], the “Growth Percentages (Lung) NCI-H460” value is given as −16%. In assay [4], the outcome was Active and the “antineoplastic activity in the DTP screen” value is “showed antineoplastic activity against all three test cell lines”.

For `C[Si](C)(C)O[Si](C)(OCCCN)O[Si](C)(OCCCN)O[Si](C)(C)C` (stereo not shown) [Compound 3, bis-(trimethylsiloxy)-1,3-dimethyl-1,3-(3-amino-1-propoxy)siloxane], in assay [4], the outcome was Inactive and the “antineoplastic activity in the DTP screen” value was “inactive”.
